Reference: article PMC3791449, “Mechanism of amyloid β−protein dimerization determined using single−molecule AFM force spectroscopy” (Scientific Reports, 2013)
Entries after “also recorded” stand apart in the source; their conditions may differ.

What was measured:
misfolded Aβ dimers [1] = assay: Dynamic force spectroscopy (DFS) of misfolded Aβ dimers; assay type: binding, human; details: for koff (dissociation rate without applied force) / xβ (potential barrier location): Bell-Evans fit; for koff (dissociation rate without applied force): extrapolated to zero force; for barrier height (ΔG) of dimer dissociation: from mean koff of independent experiments, equation (4); for dimer lifetime (1/koff): zero applied force
Procedure: The cysteinyl−peptides were covalently immobilized on the tip and the surface via flexible tethers terminated with maleimide groups. […] Peptide aggregation was minimized by using a very low peptide concentration (20 nM) during the coupling reaction with the functionalized mica surface and the tips. Probing was performed by multiple approach−retraction cycles over various spots of the mica surface.
In the DFS approach, multiple force measurements were performed at different pulling rates and the data were grouped into several clusters according to the selected loading rates. […] After extrapolating the data to the zero pulling rate, the intercept and the slope of the linear plots (DFS spectrum) produced characteristics of the complexes, including their stability (off−rate constant koff) and the energy barrier position (xβ)[20][21].
The mean values were calculated from this dataset (Supplementary Table S1) and equation (4) (see Methods) was used to extract the barrier height (ΔG), along with xβ values, to generate the energy profile for the Aβ40 dissociation process.
All cysteinyl−Aβ peptides were synthesized using 9−fluorenylmethoxycarbonyl (FMOC) chemistry and purified by reverse phase high performance liquid chromatography (RP−HPLC). […] Functionalization of AFM tips and mica substrates were prepared according to previously published procedures. Briefly, 20 nM Aβ monomers were immobilized on mica functionalized with aminopropyl silatrane (APS) via PEG 3400 tethers and on AFM tips through maleimide silatrane (MAS). For DFS study, the tip retraction speeds ranged from 100 nm/s to 4000 nm/s. The dwell time was set at 0.3 s when retraction speed reached 1000 nm/s and above. Force curves with rupture event were subject to WLC analysis, as shown below. [drawing 1] Rupture force distributions were fitted with a probability density function: [drawing 2] Dynamic force spectra were fitted with Bell−Evans model[21]: [drawing 3] The energy profiles were reconstructed according to previous papers, using the equation below. [drawing 4] Positions of interacting segments of Aβ monomers within dimers were estimated by subtracting from the measured contour lengths the lengths of all linkers and the distance between N−termini of monomers (see Fig. 1a). The contour length of PEG was estimated with the following equation[28]: [drawing 5] Where Lc(F) is the contour length, Ns is the average number of monomers, Lplanar is the length of monomers with planar conformation, Lhelical is the length of monomers with helical conformation, ΔG(F) is the free energy difference at zero appling force. The Ns is 77 ± 10 for 3400 Da PEG. The Lplanar and Lhelical are 3.58 Å and 2.8 Å, respectively. The ΔG(F) is fixed at 3 kBT. […] All error bars represent SEM. Detailed methods can be found in Supplementary Information.
A 50 mM 1−(3−aminopropyl) silatrane (APS) stock solution was prepared by dissolving the APS powder in deionized (DI) water. The 1.67 mM stock solution of maleimide−polyethylene glycol−succinimidyl valerate (MAL−PEG−SVA; 3.4 kDa Laysan Bio Inc, Arab, AL) was prepared in DMSO (Sigma−Aldrich Inc.) and stored at −20°C. The 10 mM Tris (2−carboxyethyl) phosphine (TCEP) hydrochloride (Hampton Research Inc.) and the 2.94 mM solution of maleimide silatrane (MAS) were prepared in DI water and stored at −20°C. A 10 mM stock solution of β−mercaptoethanol was prepared in 10 mM sodium phosphate, pH 7.4 (“phosphate buffer”) and kept at 4°C. Unless otherwise specified, other reagents used in the experiments were of analytical grade from Sigma−Aldrich.

misfolded Aβ dimers [2] = assay: Contour length analysis of interacting segments within Aβ dimers; assay type: binding, human; details: contour length profiles, Fig. 5
From the text: We used the contour length measurements to identify segments of the peptides involved in dimer formation. The measured contour length is comprised of the length of the flexible tethers used for peptide immobilization and the length of the segment of the peptide from the anchoring point to the rupture position. The latter, according to the schematic in Fig. 1, was obtained by subtracting the lengths of all linkers from the measured contour lengths.
Probing interactions of Aβ peptides within a dimer by SMFS provides a pattern of peptide interactions within the dimers. According to the immobilization procedure, the peptide is covalently bound at its N−terminal cysteine. The experimentally measured contour length consists of two major components, the lengths of the flexible tethers used for peptide immobilization and the length of the peptide segment between the N−terminus and the segment of the peptide involved in interpeptide interactions. Therefore, the position of the peak on the force−distance curve is defined by the peptide length between the N−terminus and the interacting segment. […] The closer the interacting segment is to the N−terminus, the shorter the contour length will be when measured by AFM. […] The contour length of PEG 3400 was estimated to be 22.0 ± 0.9 nm[28]. Lengths of both aminopropyl silatrane (APS) and MAS were ~ 2.5 nm[13]. Therefore, the total length of all linkers was 24.5 ± 0.9 nm. In addition, the distance between N−termini of two peptides was estimated to be 1.0 nm.
All cysteinyl−Aβ peptides were synthesized using 9−fluorenylmethoxycarbonyl (FMOC) chemistry and purified by reverse phase high performance liquid chromatography (RP−HPLC). The identity and purity (usually > 97%) of the peptides were confirmed by amino acid analysis followed by mass spectrometry and RP−HPLC. Functionalization of AFM tips and mica substrates were prepared according to previously published procedures. Briefly, 20 nM Aβ monomers were immobilized on mica functionalized with aminopropyl silatrane (APS) via PEG 3400 tethers and on AFM tips through maleimide silatrane (MAS). For DFS study, the tip retraction speeds ranged from 100 nm/s to 4000 nm/s. The dwell time was set at 0.3 s when retraction speed reached 1000 nm/s and above. Force curves with rupture event were subject to WLC analysis, as shown below. [drawing 1] Rupture force distributions were fitted with a probability density function: [drawing 2] Dynamic force spectra were fitted with Bell−Evans model[21]: [drawing 3] […] Positions of interacting segments of Aβ monomers within dimers were estimated by subtracting from the measured contour lengths the lengths of all linkers and the distance between N−termini of monomers (see Fig. 1a). […]

[3] = experiment #1, retraction 100-4000 nm/s
[4] = experiment #1, retraction 100-4000 nm/s, approach 400 nm/s, trigger force 100 pN, dwell 0.3 s at ≥1000 nm/s, N-terminal Cys tethered, 20 nM coupling
[5] = experiment #2, retraction 100-4000 nm/s
[6] = experiment #3, retraction 100-4000 nm/s
[7] = mean ± SEM of three experiments
[8] = mean ± SEM of three experiments, retraction 100-4000 nm/s
[9] = mean ± SEM of three experiments, DFS

Substance | koff (dissociation rate without applied force) (misfolded Aβ dimers [1]; [3]) | xβ (potential barrier location) (misfolded Aβ dimers [1]; [4]) | koff (dissociation rate without applied force) (misfolded Aβ dimers [1]; experiment #2) | xβ (potential barrier location) (misfolded Aβ dimers [1]; [5]) | koff (dissociation rate without applied force) (misfolded Aβ dimers [1]; experiment #3) | xβ (potential barrier location) (misfolded Aβ dimers [1]; [6]) | barrier height (ΔG) of dimer dissociation (misfolded Aβ dimers [1]) | koff (dissociation rate without applied force) (misfolded Aβ dimers [1]; [7]) | xβ (potential barrier location) (misfolded Aβ dimers [1]; [8]) | dimer lifetime (1/koff) (misfolded Aβ dimers [1]; [9]) | predominant interpeptide interaction pattern in dimer (misfolded Aβ dimers [2]) | lifetime increase of dimer vs WT counterpart (misfolded Aβ dimers [1]; DFS, [VPV] mutant vs wild type)
Aβ40: alloform of human amyloid β−protein; cysteinyl−Aβ peptide, Cys residue placed at the N−terminus | 9.4 s⁻¹ | 0.203 nm | 4.7 s⁻¹ | 0.257 nm | 12.9 s⁻¹ | 0.206 nm | 27.3 kBT | 9.0 ± 2.4 s⁻¹ | 0.222 ± 0.018 nm | 0.11 s | primary interactions that occur via the N−termini; also recorded: predominate contribution of N−terminal interactions | –
Aβ42: alloform of human amyloid β−protein with two additional C−terminal residues; cysteinyl−peptide | – | 0.299 nm | – | 0.260 nm | – | 0.262 nm | – | – | 0.274 ± 0.013 nm | – | interactions within the C−terminus | –
[VPV]Aβ42: Aβ42 with VPV substitutions (Gly33Val−Val36Pro−Gly38Val); cysteinyl−peptide | 1.1 s⁻¹ | 0.451 nm | 2.1 s⁻¹ | 0.337 nm | 1.5 s⁻¹ | 0.387 nm | 29.0 kBT | 1.6 ± 0.3 s⁻¹ | 0.392 ± 0.034 nm | 0.63 ± 0.12 s | interactions within the central segments | more than three times higher
[VPV]Aβ40: Aβ40 mutant with VPV substitutions (Gly33Val−Val36Pro−Gly38Val); cysteinyl−peptide | 2.2 s⁻¹ | 0.361 nm | 1.7 s⁻¹ | 0.293 nm | 1.9 s⁻¹ | 0.262 nm | 28.8 kBT | 1.9 ± 0.1 s⁻¹ | 0.305 ± 0.029 nm | 0.53 s | increased interactions between the central and C−terminal segments | –
